Data as given in the NIST ThermoML archive (doi:10.1016/j.jct.2017.02.004).

Experiment: mn = molality of the nth substance listed, in mol/kg
Conditions: 100 kPa, Liquid; for speed of sound: Frequency=3 MHz, Single path-length method; for mass density: Vibrating tube method

[Cl-].[Li+] [lithium chloride] + O
Conditions	mass density, 288.15 K [kg/m3]	mass density, 293.15 K [kg/m3]	mass density, 298.15 K [kg/m3]	mass density, 303.15 K [kg/m3]	mass density, 308.15 K [kg/m3]	speed of sound, 288.15 K [m/s]	speed of sound, 293.15 K [m/s]	speed of sound, 298.15 K [m/s]	speed of sound, 303.15 K [m/s]	speed of sound, 308.15 K [m/s]
m1 = 0.05	1000.33	999.427	998.265	996.862	995.242	1469.6	1485.6	–	1512	–
m1 = 0.1002	1001.57	1000.66	999.489	998.083	–	1472.7	1488.6	1502.6	1514.8	1525.3
m1 = 0.1498	1002.78	1001.87	1000.69	999.281	997.651	1475.8	1491.6	1505.5	1517.6	–
m1 = 0.1999	1004	1003.08	1001.89	1000.48	998.845	1478.8	1494.6	1508.3	1520.3	1530.7
m1 = 0.2502	1005.22	1004.28	1003.1	1001.68	1000.04	1482	1497.6	1511.2	–	–
m1 = 0.2999	1006.41	1005.47	1004.28	1002.86	1001.21	1485	1500.5	1514.1	1525.9	1536
m1 = 0.3503	1007.63	1006.67	1005.47	1004.05	1002.4	1488.1	1503.5	1516.9	1528.6	1538.7
m1 = 0.4	1008.83	1007.86	1006.65	1005.22	1003.57	1491.1	1506.3	1519.6	1531.2	1541.2
m1 = 0.4503	1010.02	1009.04	1007.83	1006.4	1004.74	1494.2	1509.2	1522.4	1533.9	1543.8
m1 = 0.5	1011.21	1010.21	1008.99	1007.56	1005.9	1497.2	1512.1	1525.1	1536.6	1546.4
